This is an account of results in patent US20100069417A1, “NOVEL PHENYL(4-PHENYLPYRIMIDIN-2-YL)AMINE DERIVATIVES, THEIR PREPARATION, AS MEDICAMENTS, PHARMACEUTICAL COMPOSITIONS AND IN PARTICULAR AS IKK INHIBITORS” (SANOFI-AVENTIS, priority 2007, published 2010).

Usually melting point stands for the temperature, or range, at which the solid turns liquid. `CN(C1CCNCC1)S(=O)(=O)c1ccc(Nc2nccc(-c3ccc(F)cc3)n2)cc1` [Example 4, 4-[4-(4-Fluorophenyl)pyrimidin-2-ylamino]-N-methyl-N-(piperidin-4-yl)benzenesulphonamide] gave a melting point of 115.6 °C.
As for `NCCN(C1CCN(Cc2ccccc2)CC1)S(=O)(=O)c1ccc(Nc2nccc(-c3ccc(F)cc3)n2)cc1` [Example 5, N-(2-Aminoethyl)-N-(1-benzylpiperidin-4-yl)-4-[4-(4-fluorophenyl)-pyrimidin-2-ylamino]benzenesulphonamide], the melting point is 194.4 °C.
`CN(CCS(C)(=O)=O)C1CCN(S(=O)(=O)c2ccc(Nc3nccc(-c4ccc(F)cc4)n3)cc2)CC1` [Example 2, [4-(4-Fluorophenyl)pyrimidin-2-yl]-(4-{4-[(2-(methylsulphonyl)ethyl)(methyl)amino]piperidin-1-ylsulphonyl}phenyl)amine] returned a melting point of 166.5 °C.
With `CN(Cc1ncc[nH]1)C1CCN(S(=O)(=O)c2ccc(Nc3nccc(-c4ccc(F)cc4)n3)cc2)CC1` [Example 3, [4-(4-Fluorophenyl)pyrimidin-2-yl]-(4-{4-[(1H-imidazol-2-ylmethyl) (methyl)amino]piperidin-1-ylsulphonyl}phenyl) amine], the melting point was found to be 140 °C.
In the case of `CNC1CCN(S(=O)(=O)c2ccc(Nc3nccc(-c4ccc(F)cc4)n3)cc2)CC1` [Example 1, [4-(4-Fluorophenyl)pyrimidin-2-yl][4-(4-(methylamino)piperidin-1-ylsulphonyl)phenyl]amine] it was 202.9 °C.
